Test results as given in publication PMC11078216, “Discovery of potent and selective activity-based probes (ABPs) for the deubiquitinating enzyme USP30” (RSC Chemical Biology, 2024).

Target: T1, RTN1 (Homo sapiens, UniProt Q16799)
T1 construct: endogenous in cells; host or cells: HEK293T
T1 sequence (Q16799 1-776): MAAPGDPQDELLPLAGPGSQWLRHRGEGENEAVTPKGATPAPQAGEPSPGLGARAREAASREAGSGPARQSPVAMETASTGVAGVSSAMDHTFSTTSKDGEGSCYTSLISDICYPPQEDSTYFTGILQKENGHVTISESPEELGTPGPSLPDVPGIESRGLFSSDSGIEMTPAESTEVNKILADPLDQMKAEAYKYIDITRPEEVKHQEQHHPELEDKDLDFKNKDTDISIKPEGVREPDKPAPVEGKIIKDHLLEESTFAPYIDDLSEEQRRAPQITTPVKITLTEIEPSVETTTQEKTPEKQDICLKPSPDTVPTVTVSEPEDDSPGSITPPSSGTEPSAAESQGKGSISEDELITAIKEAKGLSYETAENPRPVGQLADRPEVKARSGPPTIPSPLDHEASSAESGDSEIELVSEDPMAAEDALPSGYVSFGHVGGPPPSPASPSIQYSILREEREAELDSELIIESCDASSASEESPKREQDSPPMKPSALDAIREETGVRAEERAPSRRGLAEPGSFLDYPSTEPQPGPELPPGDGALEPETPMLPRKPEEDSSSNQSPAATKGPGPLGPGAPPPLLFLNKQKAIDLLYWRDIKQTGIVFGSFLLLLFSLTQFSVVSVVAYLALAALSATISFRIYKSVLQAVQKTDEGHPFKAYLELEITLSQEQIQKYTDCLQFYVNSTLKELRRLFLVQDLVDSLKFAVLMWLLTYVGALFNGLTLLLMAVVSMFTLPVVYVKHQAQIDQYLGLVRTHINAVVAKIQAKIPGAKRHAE
Experiment: ABPP chemical proteomics (LC-MS/MS) in HEK293T cells
Type: cell-based
Method: To explore the selectivity of IMP-2587 and IMP-2586 across the whole proteome, we performed quantitative activity-based protein profiling (ABPP) in HEK293T cells following treatment with IMP-2587 or IMP-2586 (Fig. 3a). After ABP incubation, cells were lysed, and probe-labelled proteins were ligated to biotinylated capture reagents.[27] […] USP30 was outcompeted by corresponding parent inhibitors for each ABP (Fig. 5b and d and Tables S3 and S5, ESI ^†), confirming the high potency and rapid engagement of IMP-2587 and IMP-2586 in cells. […] DESI1 and DESI2 are small ubiquitin-related modifier (SUMO) proteases,[3,29–32] and IMP-2587 and IMP-2586 may offer a starting point for future development of DESI ABPs. […]
d) Live cell probe incubation, lysate click chemistry and precipitation 6-well HEK293T cells were incubated with media containing compounds ABP 2 and ABP 4 at indicated […]
The cells were washed with PBS and lysed with lysis buffer (50 μL (1% (v/v) Triton X-100, 0.1% (w/v) sodium dodecyl sulfate (SDS), EDTA-free complete protease inhibitor cocktail (1×, Roche) in PBS on ice for 10 min. The lysates were scraped and transferred to corresponding Lo-Bind Eppendorfs. Each lysate was sonicated for 1 minute, and the samples centrifuges at 5,000 x g at 4 °C for 5 minutes to pellet insoluble cellular debris. The supernatant was collected, and protein concentration was determined using the DC Protein Assay (Bio-Rad) as per manufacturer’s instructions, and normalised to lowest concentrated sample (e.g. 1 mg/mL, using lysis buffer). The following “click mixture” was prepared separately, preparing 6 μL for every 100 μL of […]
Capture reagent (AzRB/AzT for ABP 2, YnT/YnB for ABP 4 10 mM in DMSO, 1 vol; final concentration […]
CuSO4 (50 mM in water, 2 vol; final concentration in reaction 1 mM)
TCEP (50 mM in water, 2 vol; final concentration in reaction 1 mM)
TBTA (10 mM in DMSO, 1 vol; final concentration in reaction 100 µM)
The click mixture was vortexed and incubated at room temperature for 2 min before 6 μL of the mixture was added to every 100 μL of lysate. […]

N#CN1CC[C@@H](NC(=O)c2cc(-c3ccccc3Oc3ccc(N=[N+]=[N-])cc3)n[nH]2)C1 [IMP-2586]
Difference (log2 fold change of enrichment) (IMP-2586 labelling vs DMSO, 30 nM, 10 min, HEK293T (Table S4, Fig.5c)): 1.53

C#Cc1cccc(-c2cc(NC(=O)CC3CCN(C#N)C3)on2)c1 (stereo not drawn) [IMP-2587]
Difference (log2 fold change of enrichment) (IMP-2587 labelling vs DMSO, 30 nM, 10 min, HEK293T (Table S2, Fig.5a)): 1.77

N#CN1CC[C@H](CC(=O)Nc2cc(-c3cccc(Cl)c3)no2)C1 [compound 1, reference compound]
Difference (log2 fold change of enrichment) (compound 1 out-competition with IMP-2587 labelling, HEK293T (Table S3, Fig.5b)): -0.69
